Data set [1] addresses T1, BRD4-BD1 (Homo sapiens, UniProt O60885). Kind of data set: BRD4-BD1 FRET binding. The following applies: for pIC50 ± SD: n = 4. As to the method:
(§1) Potency was determined against BRD4-BD1 using FRET binding, with this being treated as a surrogate of BRD4 activity given the homology between BD1 and BD2 across the BET proteins. , PFI is calculated from hydrophobicity plus aromatic ring count (chromatographic (chrom) logD7.4 + #Ar), with this metric being indicative of developability, or likelihood of progression to a drug candidate. PFI was used to assess the physicochemical profile of compounds, with a target of PFI < 7 as risks for several parameters, including solubility, are increased above this upper limit. Our objective was to develop a BET inhibitor with high potency and favorable physicochemical properties, as determined using PFI and LipE to guide compound optimization.

Data set [2] can be described thus: in vitro metabolic stability in rat liver microsomes (CLint). The data set is classed as in vitro ADME, rats. The conditions noted are these: n = 1. How it is done:
(§2) For both enantiomers, kinetic solubility, permeability and metabolic stability data, the latter measured by in vitro microsomal intrinsic clearance (CLint) in rats and humans, was collected (Table ). , Docking of 44 and 45 into the BRD4-BD1 binding pocket was also carried out (Figures S3–4).
(§3) hydrophobicity (chrom LogD7.4), solubility (CAD), permeability (PAMPA)
(§4) and metabolic stability (CLint) have all been described previously.1

For data set [3], the target named is T1, BRD4-BD1. In words: lipophilic efficiency (LipE = pIC50 – cLogP). The following applies: predicted using Data Warrior. From the text:
The final BET inhibitor discussed is BMS-986158 (4) (Figure ).

Data set [4] is described as follows: hydrophobicity (chrom LogD7.4) and property forecast index (PFI). The class given is physicochemical. The conditions noted are these: for PFI: PFI = chrom LogD7.4 + #Ar; for chromatographic logD: pH 7.4, chromatographic. As to the method: as §1, §3, §4
Data set [5] can be described thus: kinetic solubility by CAD. The conditions noted are these: n = 1. The data set is classed as physicochemical. As to the method: as §2, §3, §4
Data set [6] can be described thus: parallel artificial membrane permeability assay (PAMPA). The class given is in vitro ADME. How it is done:
Additionally, the in vitro permeability of these compounds was determined by a parallel artificial membrane permeability assay (PAMPA). […] This would be protonated at physiological pH and decrease the overall affinity of the compound toward the hydrophobic membrane region.
as §3, §4

Data set [7] in a line: in vitro metabolic stability in human liver microsomes (CLint). The data set is classed as in vitro ADME, humans. The following applies: n = 1. How it is done: as §2, §3, §4
The next data set relates to BRD2. The conditions noted are these: binding to BRD2, reported; cited from earlier work.
For data set [8], the system named is BRD4. The conditions noted are these: binding to BRD4, reported; cited from earlier work.
For a further data set, the system named is BRD3. The conditions noted are these: binding to BRD3, reported; cited from earlier work.
Data set [9] relates to panel of human lung cancer cell lines. The conditions noted are these: reported; cited from earlier work.
Data set [10] relates to BRD4. The conditions noted are these: BRD4, AlphaScreen; cited from earlier work.
The conditions of data set [11]: cited from earlier work.
For another data set, the system named is c-Myc expression. The conditions noted are these: advanced malignancies such as AML; cited from earlier work.
In another data set the test system is tumor cell. The conditions noted are these: advanced malignancies such as AML; cited from earlier work.
For data set [12] the following is noted: Phase I studies; cited from earlier work.
The subject of data set [13] is BRD4. The following applies: BRD4, fluorescence polarization; cited from earlier work.
In data set [14] the test system is BRD4. The conditions noted are these: BRD4, FRET binding; cited from earlier work.
Setting [15] is: BRD4-BD1, FRET binding, n = 2, enantiomers.
Setting [16] is: BRD4-BD1, values for 29, 30, 40.

Converted amounts (≈) assume the structure as drawn. “And” between values parts separate entries of the source, which are not always exact repeats. Equal values may be shown once. Read-outs that look alike come from different tables or passages of the source. Some results are limits rather than exact numbers.

These results are taken from paper PMC11995238, “Discovery of Highly Potent BET Inhibitors based on a Tractable Tricyclic Scaffold” (ACS Medicinal Chemistry Letters, 2025).

The compound `Cc1nnn(C)c1-c1ccc2c3nnc(NCCO)nc3n([C@@H](c3ccccn3)C3CCOCC3)c2c1` (single isomer, unassigned) [Compound 44] returned a negative-log IC50 (pIC50) on BRD4-BD1 [1] (setting [15]) of 8.35 ± 0.01. This compound came in with an intrinsic metabolic clearance (microsomal CLint) in [2] of less than 10 µL/min/mg. For the same compound, the LipE at BRD4-BD1 [3] is 6.16. Also, in [4], the PFI worked out at 7.14 and the chromatographic logD is 2.14. In [5], the Solubility was found to be 134 µg/mL (≈ 268 µM). The same compound gave an apparent permeability coefficient (Papp) in data set [6] of 7.78 ×10⁻⁶ cm/s. Also, the intrinsic metabolic clearance (microsomal CLint) in data set [7] was less than 10 µL/min/mg.
Compound `Cc1nnn(C)c1-c1ccc2c3nnc(NCCO)nc3n([C@H](c3ccccn3)C3CCOCC3)c2c1` (single isomer, unassigned) [Compound 45] registered a pIC50 on BRD4-BD1 [1] (setting [15]) of 8.02 ± 0.08. Besides, the microsomal CLint in data set [2] and in data set [7] was less than 10 µL/min/mg throughout. The LipE at BRD4-BD1 [3] is recorded as 5.83. Moreover, the PFI in [4] is given as 7.14. Besides, in data set [5], the Solubility was found to be 138 µg/mL (≈ 276 µM). In data set [6], this compound gave an apparent permeability coefficient (Papp) of 9.36 ×10⁻⁶ cm/s.
On to `Cc1nnn(C)c1-c1cnc2c3ccc(C(C)(C)O)cc3n([C@@H](c3ccccc3)C3CCOCC3)c2c1` (stereo in doubt) [Compound 4, BMS-986158, reference compound], for which the LipE on BRD4-BD1 [3] was 3.51. Moreover, the PFI in [4] was 9.08. Also, the chromatographic logD in data set [4] was 4.08. Further, the half-inhibitory concentration (IC50) is 0.8 nM with BRD2, 1.1 nM in the data set on BRD4 [8] and 1.4 nM with BRD3. In [5], the Solubility was 109 µg/mL (≈ 220 µM). The same compound returned a Papp in [6] of 49.8 ×10⁻⁶ cm/s. In [9], the cytotoxicity entry is recorded as “potent cytotoxicity”.
As to `Cc1sc2c(c1C)C(c1ccc(Cl)cc1)=N[C@@H](CC(=O)OC(C)(C)C)c1nnc(C)n1-2` [Compound 1, JQ1], the pIC50 in the data set on BRD4 [10] is on record as 7.10. Also, in [11], the half-life is given as 1 h and the oral bioavailability result was “low”. Also, the c-Myc expression result with c-Myc expression is on record as “effectively downregulate”. In the data set on tumor cell, the tumor cell proliferation result is given as “inhibit tumor cell proliferation”.
As to `COc1cc2c(cc1-c1c(C)noc1C)ncc1[nH]c(=O)n([C@H](C)c3ccccn3)c12` [Compound 2, I-BET151], the cardiotoxicity entry in data set [12] is “exhibited cardiotoxicity”. In addition, in the data set with c-Myc expression, the c-Myc expression entry is recorded as “effectively downregulate”. Also, the negative-log IC50 (pIC50) in the data set on BRD4 [13] is given as 6.10. For the same compound, the tumor cell proliferation entry in the data set on tumor cell is listed as “inhibit tumor cell proliferation”.
Take `CCS(=O)(=O)Nc1ccc(Oc2ccc(F)cc2F)c(-c2cn(C)c(=O)c3[nH]ccc23)c1` [Compound 3, N-(4-(2,4-Difluorophenoxy)-3-(6-methyl-7-oxo-6,7-dihydro-1H-pyrrolo[2,3-c]pyridin-4-yl)phenyl)ethanesulfonamide]: in the data set with BRD4 [14], the pIC50 is 8.82. In addition, the c-Myc expression result with c-Myc expression is “effectively downregulate”. Also, in the data set on tumor cell, the tumor cell proliferation result is given as “inhibit tumor cell proliferation”.
As for `COCCNc1nnc2c(n1)[nH]c1cc(-c3c(C)noc3C)ccc12` [Compound 5a], at BRD4-BD1 [1] (BRD4-BD1, FRET binding), the “pIC50 ± SD” value worked out at 6.22 ± 0.05. Further, at BRD4-BD1 [3], the LipE is listed as 4.39. For the same compound, the PFI in data set [4] was found to be 6.83.
Taken in the same sequence, the figures for `COCCNc1nnc2c(n1)[nH]c1ccc(-c3c(C)noc3C)cc12` [Compound 5b] were 5.64 ± 0.05, 3.82 and 6.78.
Taken in the same sequence, the figures for `COCCNc1nnc2c3ccc(-c4c(C)noc4C)cc3n(Cc3ccccc3)c2n1` [Compound 12a] were 7.53 ± 0.12, 4.22 and 10.6.
On the same counts, the results for `COCCNc1nnc2c3cc(-c4c(C)noc4C)ccc3n(Cc3ccccc3)c2n1` [Compound 12b] are 6.08 ± 0.34, 2.77 and 10.8.
Take `COCCNc1nnc2c3ccc(-c4c(C)noc4C)cc3n(Cc3ccc(F)cc3)c2n1` [Compound 13a]: at BRD4-BD1 [1] (BRD4-BD1, FRET binding), the “pIC50 ± SD” value amounted to 7.34 ± 0.04. The LipE at BRD4-BD1 [3] is 3.93. Further, in data set [4], the PFI is reported as 10.7.
Taken in the same sequence, the figures for `COCCNc1nnc2c3cc(-c4c(C)noc4C)ccc3n(Cc3ccc(F)cc3)c2n1` [Compound 13b] were 6.18 ± 0.05, 2.77 and 10.8.
On the same counts, the results for `COCCNc1nnc2c3ccc(-c4c(C)noc4C)cc3n(C(c3ccccc3)C3CCOCC3)c2n1` (stereo not drawn) [Compound 22] are 8.27 ± 0.31, 3.69 and 10.6.
Taken in the same sequence, the figures for `COCCNc1nnc2c3cc(-c4c(C)noc4C)ccc3n(C(c3ccccc3)C3CCOCC3)c2n1` (stereo not drawn) [Compound 23] were 6.33 ± 0.03, 1.75 and 10.7.
In the case of `COCCNc1nnc2c3ccc(-c4c(C)noc4C)cc3n(C(c3ccccn3)C3CCOCC3)c2n1` (stereo not drawn) [Compound 24], the “pIC50 ± SD” value at BRD4-BD1 [1] (BRD4-BD1, FRET binding) is reported as 8.01 ± 0.11. Moreover, the LipE at BRD4-BD1 [3] is recorded as 4.38. Further, the PFI in [4] was 9.74.
On the same counts, the results for `COCCNc1nnc2c3ccc(-c4c(C)noc4C)cc3n(C(c3ccccc3)C3CCNCC3)c2n1` (stereo not drawn) [Compound 27] are 7.63 ± 0.05, 3.20 and 7.96.
Taken in the same sequence, the figures for `COCCNc1nnc2c3ccc(-c4c(C)noc4C)cc3n(C(c3ccccn3)C3CCNCC3)c2n1` (stereo not drawn) [Compound 28] were 7.74 ± 0.12, 4.25 and 7.37.
Regarding `Cc1noc(C)c1-c1ccc2c3nnc(NCCO)nc3n(C(c3ccccn3)C3CCNCC3)c2c1` (stereo not drawn) [Compound 29], on BRD4-BD1 [1] (setting [16]), the negative logarithm of the IC50 (pIC50) is listed as 7.29 ± 0.06. The LipE at BRD4-BD1 [3] is 4.23. For the same compound, in data set [4], the PFI is 6.74 and < 7. Further, the Papp in data set [6] is less than 0.3 ×10⁻⁶ cm/s.
The compound `COCCNc1nnc2c3ccc(-c4c(C)nnn4C)cc3n(C(c3ccccn3)C3CCNCC3)c2n1` (stereo not drawn) [Compound 30] returned a pIC50 at BRD4-BD1 [1] (setting [16]) of 7.41 ± 0.03. The LipE on BRD4-BD1 [3] is listed as 4.93. Also, the PFI in [4] is 6.46 and < 7. For the same compound, in data set [6], the Papp is less than 0.3 ×10⁻⁶ cm/s.
On to `Cc1nnn(C)c1-c1ccc2c3nnc(NCCO)nc3n(C(c3ccccn3)C3CCOCC3)c2c1` (stereo not drawn) [Compound 40], for which, on BRD4-BD1 [1] (setting [16]), the negative-log IC50 (pIC50) came out at 7.98 ± 0.17. Further, the LipE on BRD4-BD1 [3] was 5.79. Also, the PFI in data set [4] is on record as 7.15. Besides, the apparent permeability (Papp) in [6] was determined as 10.4 ×10⁻⁶ cm/s.
